Experiments:
[1] = tested on: Tyrosine-protein kinase ABL1 (Homo sapiens), P00519 [Q252H]; conditions: Compound concentration 1000.0 nM
[2] = target: Tyrosine-protein kinase ABL1 (Homo sapiens) (UniProt P00519); conditions: Compound concentration 1000.0 nM
[3] = target: Activin receptor type-1-like (Homo sapiens) (UniProt P37023); conditions: Compound concentration 1000.0 nM
[4] = target: Serine/threonine-protein kinase B-raf (Homo sapiens) (UniProt P15056); conditions: Compound concentration 1000.0 nM
[5] = target: Calcium/calmodulin-dependent protein kinase type 1 (Homo sapiens) (UniProt Q14012); conditions: Compound concentration 1000.0 nM
[6] = target: Calcium/calmodulin-dependent protein kinase type II subunit alpha (Homo sapiens) (UniProt Q9UQM7); conditions: Compound concentration 1000.0 nM
[7] = target: Cyclin-dependent kinase 13 (Homo sapiens) (UniProt Q14004); conditions: Compound concentration 1000.0 nM
[8] = target: Cyclin-dependent kinase 7 (Homo sapiens) (UniProt P50613); conditions: Compound concentration 1000.0 nM
[9] = target: Dual specificity tyrosine-phosphorylation-regulated kinase 1A (Homo sapiens) (UniProt Q13627); conditions: Compound concentration 1000.0 nM
[10] = tested on: Epidermal growth factor receptor (Homo sapiens), P00533 [UNDEFINED MUTATION]; conditions: Compound concentration 1000.0 nM
[11] = target: Ephrin type-A receptor 6 (Homo sapiens) (UniProt Q9UF33); conditions: Compound concentration 1000.0 nM
[12] = target: Ephrin type-B receptor 6 (Homo sapiens) (UniProt O15197); conditions: Compound concentration 1000.0 nM
[13] = target: Mitogen-activated protein kinase 1 (Homo sapiens) (UniProt P28482); conditions: Compound concentration 1000.0 nM
[14] = tested on: Receptor-type tyrosine-protein kinase FLT3 (Homo sapiens), P36888 [R834Q]; conditions: Compound concentration 1000.0 nM
[15] = target: G protein-coupled receptor kinase 3 (Homo sapiens) (UniProt P35626); conditions: Compound concentration 1000.0 nM
[16] = target: G protein-coupled receptor kinase 4 (Homo sapiens) (UniProt P32298); conditions: Compound concentration 1000.0 nM
[17] = target: Homeodomain-interacting protein kinase 4 (Homo sapiens) (UniProt Q8NE63); conditions: Compound concentration 1000.0 nM
[18] = tested on: Mast/stem cell growth factor receptor Kit (Homo sapiens), P10721 [D816V]; conditions: Compound concentration 1000.0 nM
[19] = tested on: Mast/stem cell growth factor receptor Kit (Homo sapiens), P10721 [V559D,T670I]; conditions: Compound concentration 1000.0 nM
[20] = target: Tyrosine-protein kinase Lck (Homo sapiens) (UniProt P06239); conditions: Compound concentration 1000.0 nM
[21] = target: LIM domain kinase 2 (Homo sapiens) (UniProt P53671); conditions: Compound concentration 1000.0 nM
[22] = target: Serine/threonine-protein kinase MAK (Homo sapiens) (UniProt P20794); conditions: Compound concentration 1000.0 nM
[23] = target: Serine/threonine-protein kinase MARK2 (Homo sapiens) (UniProt Q7KZI7); conditions: Compound concentration 1000.0 nM
[24] = target: Dual specificity mitogen-activated protein kinase kinase 6 (Homo sapiens) (UniProt P52564); conditions: Compound concentration 1000.0 nM
[25] = target: Misshapen-like kinase 1 (Homo sapiens) (UniProt Q8N4C8); conditions: Compound concentration 1000.0 nM
[26] = target: Mitogen-activated protein kinase kinase kinase 14 (Homo sapiens) (UniProt Q99558); conditions: Compound concentration 1000.0 nM
[27] = target: Serine/threonine-protein kinase PAK 2 (Homo sapiens) (UniProt Q13177); conditions: Compound concentration 1000.0 nM
[28] = target: Serine/threonine-protein kinase PAK 6 (Homo sapiens) (UniProt Q9NQU5); conditions: Compound concentration 1000.0 nM
[29] = target: Serine/threonine-protein kinase PAK 5 (Homo sapiens) (UniProt Q9P286); conditions: Compound concentration 1000.0 nM
[30] = target: Cyclin-dependent kinase 18 (Homo sapiens) (UniProt Q07002); conditions: Compound concentration 1000.0 nM
[31] = tested on: Phosphatidylinositol 4,5-bisphosphate 3-kinase catalytic subunit alpha isoform (Homo sapiens), P42336 [E545A]; conditions: Compound concentration 1000.0 nM
[32] = target: Serine/threonine-protein kinase PLK2 (Homo sapiens) (UniProt Q9NYY3); conditions: Compound concentration 1000.0 nM
[33] = target: cGMP-dependent protein kinase 1 (Homo sapiens) (UniProt Q13976); conditions: Compound concentration 1000.0 nM
[34] = target: Interferon-induced, double-stranded RNA-activated protein kinase (Homo sapiens) (UniProt P19525); conditions: Compound concentration 1000.0 nM
[35] = target: Receptor-interacting serine/threonine-protein kinase 4 (Homo sapiens) (UniProt P57078); conditions: Compound concentration 1000.0 nM
[36] = target: Ribosomal protein S6 kinase alpha-4 (Homo sapiens) (UniProt O75676); conditions: Compound concentration 1000.0 nM
[37] = target: Ribosomal protein S6 kinase alpha-5 (Homo sapiens) (UniProt O75582); conditions: Compound concentration 1000.0 nM
[38] = target: Serine/threonine-protein kinase TAO2 (Homo sapiens) (UniProt Q9UL54); conditions: Compound concentration 1000.0 nM
[39] = target: Serine/threonine-protein kinase TAO3 (Homo sapiens) (UniProt Q9H2K8); conditions: Compound concentration 1000.0 nM
[40] = target: Non-receptor tyrosine-protein kinase TYK2 (Homo sapiens) (UniProt P29597); conditions: Compound concentration 1000.0 nM
[41] = target: Tyrosine-protein kinase receptor TYRO3 (Homo sapiens) (UniProt Q06418); conditions: Compound concentration 1000.0 nM
[42] = target: Serine/threonine-protein kinase WNK2 (Homo sapiens) (UniProt Q9Y3S1); conditions: Compound concentration 1000.0 nM
[43] = target: 5-hydroxytryptamine receptor 2C (Homo sapiens) (UniProt P28335); conditions: Compound concentration 10.0 uM
[44] = target: D(1A) dopamine receptor (Homo sapiens) (UniProt P21728); conditions: Compound concentration 10.0 uM
[45] = target: Delta-type opioid receptor (Homo sapiens) (UniProt P41143); conditions: Compound concentration 10.0 uM

Activin receptor type-1-like (Homo sapiens), sequence (P37023 whole entry): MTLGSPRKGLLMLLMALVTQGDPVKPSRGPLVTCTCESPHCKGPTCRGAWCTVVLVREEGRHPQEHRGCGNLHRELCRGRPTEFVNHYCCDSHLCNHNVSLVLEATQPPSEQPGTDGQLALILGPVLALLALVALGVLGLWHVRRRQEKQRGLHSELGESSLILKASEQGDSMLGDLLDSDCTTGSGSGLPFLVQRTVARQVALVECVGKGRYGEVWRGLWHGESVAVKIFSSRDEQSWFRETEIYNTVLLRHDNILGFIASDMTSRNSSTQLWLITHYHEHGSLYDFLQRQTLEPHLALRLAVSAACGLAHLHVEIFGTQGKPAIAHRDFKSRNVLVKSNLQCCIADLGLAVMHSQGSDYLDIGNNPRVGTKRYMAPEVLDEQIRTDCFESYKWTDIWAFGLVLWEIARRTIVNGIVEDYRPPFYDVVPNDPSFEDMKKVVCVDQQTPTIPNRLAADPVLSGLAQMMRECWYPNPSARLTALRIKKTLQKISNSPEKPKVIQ
cGMP-dependent protein kinase 1 (Homo sapiens), sequence (Q13976 whole entry): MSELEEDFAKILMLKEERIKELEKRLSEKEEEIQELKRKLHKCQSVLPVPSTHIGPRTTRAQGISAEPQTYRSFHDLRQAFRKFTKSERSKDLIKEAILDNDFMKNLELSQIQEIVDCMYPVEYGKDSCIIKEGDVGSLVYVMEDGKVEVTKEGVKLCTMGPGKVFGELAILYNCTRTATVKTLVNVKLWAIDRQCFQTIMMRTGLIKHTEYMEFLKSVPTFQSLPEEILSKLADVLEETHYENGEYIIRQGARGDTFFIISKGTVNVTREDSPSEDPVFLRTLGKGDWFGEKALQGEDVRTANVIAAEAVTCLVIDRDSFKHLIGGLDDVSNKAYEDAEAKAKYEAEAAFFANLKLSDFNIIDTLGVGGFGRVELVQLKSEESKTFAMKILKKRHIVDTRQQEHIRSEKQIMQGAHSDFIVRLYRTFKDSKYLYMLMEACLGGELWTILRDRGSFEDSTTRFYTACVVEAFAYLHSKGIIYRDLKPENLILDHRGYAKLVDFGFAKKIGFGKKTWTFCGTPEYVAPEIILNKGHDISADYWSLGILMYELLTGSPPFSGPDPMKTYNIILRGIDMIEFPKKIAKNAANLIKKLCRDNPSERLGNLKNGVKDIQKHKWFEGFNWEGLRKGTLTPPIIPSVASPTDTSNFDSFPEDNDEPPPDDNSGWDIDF
Serine/threonine-protein kinase PAK 2 (Homo sapiens), sequence (Q13177 whole entry): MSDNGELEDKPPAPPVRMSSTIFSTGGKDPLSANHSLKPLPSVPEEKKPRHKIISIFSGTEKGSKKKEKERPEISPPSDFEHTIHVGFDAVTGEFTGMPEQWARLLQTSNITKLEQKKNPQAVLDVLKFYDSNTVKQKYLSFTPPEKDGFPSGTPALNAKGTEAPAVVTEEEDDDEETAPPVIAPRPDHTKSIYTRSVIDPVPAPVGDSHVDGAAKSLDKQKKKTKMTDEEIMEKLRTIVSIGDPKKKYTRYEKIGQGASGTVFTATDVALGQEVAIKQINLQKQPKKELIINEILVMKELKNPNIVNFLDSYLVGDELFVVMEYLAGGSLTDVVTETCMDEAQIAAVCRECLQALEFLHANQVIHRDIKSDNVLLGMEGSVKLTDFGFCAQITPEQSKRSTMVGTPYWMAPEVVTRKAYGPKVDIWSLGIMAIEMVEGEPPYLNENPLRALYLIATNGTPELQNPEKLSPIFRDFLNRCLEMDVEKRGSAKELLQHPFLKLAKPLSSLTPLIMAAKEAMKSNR
D(1A) dopamine receptor (Homo sapiens), sequence (P21728 whole entry): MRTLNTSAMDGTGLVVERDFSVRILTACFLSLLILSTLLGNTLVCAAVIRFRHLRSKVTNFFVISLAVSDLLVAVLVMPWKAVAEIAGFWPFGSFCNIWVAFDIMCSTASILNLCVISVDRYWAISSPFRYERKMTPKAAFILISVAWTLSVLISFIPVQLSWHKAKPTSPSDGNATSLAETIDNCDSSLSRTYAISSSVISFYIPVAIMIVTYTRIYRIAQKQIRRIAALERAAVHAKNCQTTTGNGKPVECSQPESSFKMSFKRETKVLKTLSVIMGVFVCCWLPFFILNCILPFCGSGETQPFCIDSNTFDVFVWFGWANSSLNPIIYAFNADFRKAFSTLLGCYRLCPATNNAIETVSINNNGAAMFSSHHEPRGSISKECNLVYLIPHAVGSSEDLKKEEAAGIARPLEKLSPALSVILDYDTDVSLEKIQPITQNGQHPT
Mast/stem cell growth factor receptor Kit (Homo sapiens), P10721 [D816V], sequence (P10721 whole entry D816V): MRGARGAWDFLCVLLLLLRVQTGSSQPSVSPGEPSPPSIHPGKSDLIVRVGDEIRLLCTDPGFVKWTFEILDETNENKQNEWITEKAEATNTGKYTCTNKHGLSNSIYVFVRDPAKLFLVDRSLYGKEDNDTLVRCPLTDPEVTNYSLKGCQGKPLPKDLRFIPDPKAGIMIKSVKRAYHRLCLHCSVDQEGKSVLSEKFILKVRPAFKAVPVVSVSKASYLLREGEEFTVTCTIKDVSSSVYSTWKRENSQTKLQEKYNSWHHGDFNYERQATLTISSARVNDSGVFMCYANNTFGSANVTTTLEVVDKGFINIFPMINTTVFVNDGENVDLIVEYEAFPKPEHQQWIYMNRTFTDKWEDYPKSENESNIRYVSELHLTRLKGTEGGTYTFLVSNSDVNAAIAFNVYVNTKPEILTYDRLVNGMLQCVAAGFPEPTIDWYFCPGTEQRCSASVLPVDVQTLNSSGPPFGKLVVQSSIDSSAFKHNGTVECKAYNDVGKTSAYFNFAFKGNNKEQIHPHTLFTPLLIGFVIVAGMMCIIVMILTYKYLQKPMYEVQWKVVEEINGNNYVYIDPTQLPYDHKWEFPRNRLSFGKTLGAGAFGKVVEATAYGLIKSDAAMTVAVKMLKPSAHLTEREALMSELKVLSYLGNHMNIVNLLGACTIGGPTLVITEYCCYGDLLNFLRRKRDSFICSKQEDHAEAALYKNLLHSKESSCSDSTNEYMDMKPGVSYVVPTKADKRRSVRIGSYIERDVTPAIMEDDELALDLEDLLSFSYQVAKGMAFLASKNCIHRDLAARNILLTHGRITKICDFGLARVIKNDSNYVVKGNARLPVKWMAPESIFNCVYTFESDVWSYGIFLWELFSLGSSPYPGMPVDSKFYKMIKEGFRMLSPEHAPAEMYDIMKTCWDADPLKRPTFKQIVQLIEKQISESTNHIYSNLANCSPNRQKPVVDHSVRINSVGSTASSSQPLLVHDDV
Cyclin-dependent kinase 7 (Homo sapiens), sequence (P50613 whole entry): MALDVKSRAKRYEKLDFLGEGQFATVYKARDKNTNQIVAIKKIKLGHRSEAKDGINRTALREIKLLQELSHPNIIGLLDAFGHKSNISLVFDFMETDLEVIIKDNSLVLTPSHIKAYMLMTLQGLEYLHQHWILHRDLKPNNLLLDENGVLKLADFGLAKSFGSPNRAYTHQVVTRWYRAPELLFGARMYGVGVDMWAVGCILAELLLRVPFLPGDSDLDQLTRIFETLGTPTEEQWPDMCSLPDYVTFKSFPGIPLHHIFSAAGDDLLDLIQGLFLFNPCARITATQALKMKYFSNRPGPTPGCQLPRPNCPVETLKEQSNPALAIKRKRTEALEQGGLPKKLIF
Serine/threonine-protein kinase PAK 6 (Homo sapiens), sequence (Q9NQU5 whole entry, looked up): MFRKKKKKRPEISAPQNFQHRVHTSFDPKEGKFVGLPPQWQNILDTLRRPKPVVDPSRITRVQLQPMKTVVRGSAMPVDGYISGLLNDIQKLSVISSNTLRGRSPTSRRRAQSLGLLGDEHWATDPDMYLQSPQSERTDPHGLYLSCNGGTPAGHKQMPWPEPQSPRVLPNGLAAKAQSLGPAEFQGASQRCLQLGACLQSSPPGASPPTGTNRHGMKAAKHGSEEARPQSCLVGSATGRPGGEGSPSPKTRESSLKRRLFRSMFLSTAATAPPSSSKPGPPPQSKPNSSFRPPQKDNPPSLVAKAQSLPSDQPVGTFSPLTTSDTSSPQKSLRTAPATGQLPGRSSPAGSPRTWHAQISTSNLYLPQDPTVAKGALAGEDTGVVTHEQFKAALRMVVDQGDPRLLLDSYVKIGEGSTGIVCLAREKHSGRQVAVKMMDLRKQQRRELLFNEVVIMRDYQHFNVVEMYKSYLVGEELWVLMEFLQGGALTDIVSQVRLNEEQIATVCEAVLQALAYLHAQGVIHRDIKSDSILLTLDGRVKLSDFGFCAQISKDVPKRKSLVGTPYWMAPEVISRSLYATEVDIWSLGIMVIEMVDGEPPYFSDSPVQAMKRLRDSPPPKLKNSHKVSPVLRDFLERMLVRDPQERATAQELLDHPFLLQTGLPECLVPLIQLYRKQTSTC
Mitogen-activated protein kinase 1 (Homo sapiens), sequence (P28482 whole entry): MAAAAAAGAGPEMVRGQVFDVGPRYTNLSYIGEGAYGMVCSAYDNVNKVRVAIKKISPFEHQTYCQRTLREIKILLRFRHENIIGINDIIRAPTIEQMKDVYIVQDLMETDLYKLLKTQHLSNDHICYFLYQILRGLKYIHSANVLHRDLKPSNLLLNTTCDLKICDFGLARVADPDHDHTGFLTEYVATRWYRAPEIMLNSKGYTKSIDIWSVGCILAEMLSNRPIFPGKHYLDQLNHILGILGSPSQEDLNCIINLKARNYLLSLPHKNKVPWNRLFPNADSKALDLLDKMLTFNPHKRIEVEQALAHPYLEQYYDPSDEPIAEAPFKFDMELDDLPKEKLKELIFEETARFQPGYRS
Calcium/calmodulin-dependent protein kinase type 1 (Homo sapiens), sequence (Q14012 whole entry, looked up): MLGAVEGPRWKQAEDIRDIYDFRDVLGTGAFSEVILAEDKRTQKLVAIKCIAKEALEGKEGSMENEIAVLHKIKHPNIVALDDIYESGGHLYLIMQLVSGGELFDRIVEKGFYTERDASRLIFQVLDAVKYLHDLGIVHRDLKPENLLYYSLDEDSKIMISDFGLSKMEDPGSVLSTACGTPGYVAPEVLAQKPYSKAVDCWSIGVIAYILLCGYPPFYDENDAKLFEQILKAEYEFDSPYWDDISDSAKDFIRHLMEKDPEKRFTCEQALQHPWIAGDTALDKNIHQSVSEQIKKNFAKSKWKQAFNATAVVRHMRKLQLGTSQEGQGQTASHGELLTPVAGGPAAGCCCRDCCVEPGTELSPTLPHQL
Mast/stem cell growth factor receptor Kit (Homo sapiens), P10721 [V559D,T670I], sequence (P10721 whole entry V559D/T670I): as the sequence (P10721 whole entry D816V) above, with V559D, T670I, V816D counted along it

Cc1nc(Cc2cccc(C(F)(F)F)c2)sc1-c1ccc(C(N)=O)nc1 [TP-024n]
inactive: residual activity [1] 100% | residual activity [2] 95% | residual activity [3] 99% | residual activity [4] 73% | residual activity [5] 86% | residual activity [6] 91% | residual activity [7] 100% | residual activity [8] 90% | residual activity [9] 67% | residual activity [10] 100% | residual activity [11] 96% | residual activity [12] 100% | residual activity [13] 95% | residual activity [14] 92% | residual activity [15] 100% | residual activity [16] 100% | residual activity [17] 100% | residual activity [18] 81% | residual activity [19] 91% | residual activity [20] 100% | residual activity [21] 98% | residual activity [22] 81% | residual activity [23] 69% | residual activity [24] 69% | residual activity [25] 92% | residual activity [26] 100% | residual activity [27] 60% | residual activity [28] 92% | residual activity [29] 97% | residual activity [30] 100% | residual activity [31] 100% | residual activity [32] 82% | residual activity [33] 87% | residual activity [35] 83% | residual activity [36] 82% | residual activity [37] 83% | residual activity [38] 86% | residual activity [39] 83% | residual activity [40] 100% | residual activity [41] 99% | residual activity [42] 100% | inhibition [43] 0.93% | inhibition [44] -6.03% | inhibition [45] 4.01%
active: residual activity [34] 49%

Cc1cc(-n2nc(Cc3cc(F)cc(C(F)(F)F)c3)nc2C)ccc1C(N)=O [TP-024]
inactive: residual activity [1] 100% | residual activity [2] 97% | residual activity [3] 100% | residual activity [4] 86% | residual activity [5] 90% | residual activity [6] 99% | residual activity [7] 100% | residual activity [8] 100% | residual activity [9] 92% | residual activity [10] 100% | residual activity [11] 100% | residual activity [12] 100% | residual activity [13] 100% | residual activity [14] 77% | residual activity [15] 100% | residual activity [16] 100% | residual activity [17] 100% | residual activity [18] 100% | residual activity [19] 100% | residual activity [20] 100% | residual activity [21] 95% | residual activity [22] 100% | residual activity [23] 89% | residual activity [24] 83% | residual activity [25] 93% | residual activity [26] 100% | residual activity [27] 75% | residual activity [28] 100% | residual activity [29] 100% | residual activity [30] 100% | residual activity [31] 100% | residual activity [32] 100% | residual activity [33] 100% | residual activity [34] 62% | residual activity [35] 95% | residual activity [36] 95% | residual activity [37] 88% | residual activity [38] 91% | residual activity [39] 83% | residual activity [40] 100% | residual activity [41] 100% | residual activity [42] 100% | inhibition [43] -5.34% | inhibition [44] -4.72% | inhibition [45] -1.45%
